# From patent EP3838286B1, “ANTIMICROBIAL PEPTIDE FROM POLISTES GALLICUS VENOM AND ITS ANALOGS” (Latoxan, priority 2019, dated 2021)
# Where two headings read alike, the source gives them in different places. Square brackets hold non-standard residues; d marks the D form. Peptide text beside a SMILES is read from it.
# Columns and labels:
# [1] = system: MiaPaCa-2; test: Antitumor / antiproliferative activity (resazurin); assay type: cell-based; settings: Homo sapiens, MIA PaCa-2; pancreas cancer cells; 5,000 cells/well; 48 h; read-out: IC50 antiproliferative effect MiaPaCa-2
# Procedure: (§1) Human cancer cell lines (Mia PaCa-2 (CRL-1420), PC-3 (CRL-1435), MDA-MB-231 (HTB-26)) and normal lung fibrobasts (BEAS-2B (ATCC CRL-9609) and IMR-90 (ATCC CCL-186)) were obtained from American Type Culture Collection (ATCC). HUVEC cells were obtained from Sigma Aldrich and were grown in defined all-in-one ready to use endothelial cell growth medium (Sigma Aldrich). Other cells were cultured in Dulbecco's modified Eagle's medium (DMEM, Gibco Life Technologies) supplemented with 10% heat-inactivated fetal calf serum (FCS, Lonza) at 37 °C in an incubator containing 5% CO2. Cells were sub-cultured in new media every 3-4 days. Antiproliferative / antitumor effects of the peptides were measured as previously described (Borie et al., Eur J Med Chem. 2018;148:306-313). Briefly, cells were detached from growing flask using trypsin, cells were counted and seeded in 96 well-plates in the growth media at an initial cell density of 5000 cells/well. Cells were left for 4 h to attach to the wells. Cells were then treated with increasing concentrations of peptides diluted in culture media. After 48 h incubation at 37 °C in a 5% CO2 incubator, wells were emptied and cell number was evaluated using Resazurin based in vitro toxicity assay kit (from Sigma-Aldrich) following manufacturer's instructions. Briefly, Resazurin stock solution was diluted 1:10 in sterile PBS containing calcium and magnesium (PBS, pH 7.4) and empty wells were filled with 100 µL of the diluted solution. After 4 h incubation at 37 °C, fluorescence intensity was measured using microplate reader (Synergy Mx, Biotek) with an excitation wavelength of 530 nm and an emission wavelength of 590 nm. The fluorescence values were normalized by the controls (buffer treated cells) and expressed as per-cent viability. […]
# [2] = system: MDA-MB-231; test: Antitumor / antiproliferative activity (resazurin); assay type: cell-based; settings: Homo sapiens, breast cancer cells, 5,000 cells/well, 48 h, read-out: IC50 antiproliferative effect MDA-MB-231
# Procedure: as §1
# [3] = system: PC-3; test: Antitumor / antiproliferative activity (resazurin); assay type: cell-based; settings: Homo sapiens, prostate cancer cells, 5,000 cells/well, 48 h, read-out: IC50 antiproliferative effect PC-3
# Procedure: as §1
# [4] = Cytotoxicity assay (resazurin); assay type: cell-based; settings: human
# Procedure: Normal human cells used were BEAS-2B (ATCC CRL-9609), IMR-90 (ATCC CCL-186) and Human Umbilical Vein Endothelial Cells (HUVEC) (from Sigma-Aldrich) corresponding respectively to human normal lung epithelial, normal lung fibroblast cells and human normal endothelial cells. All cells except HUVEC cells were cultured in Dulbecco's modified essential medium (DMEM) supplemented with 10% fetal calf serum (FCS), 1% L-glutamine and 1% antibiotics (all from Invitrogen). HUVEC cells were cultured in specific endothelial media (from Sigma Aldrich). Cells were seeded onto […] maintained in a 5% CO2 incubator at 37 °C. Cells grown on 25 cm^2 flasks were detached using trypsin-EDTA solution (from Thermofisher), counted using Mallassez counting chamber and seeded into 96-well cell culture plates (Greiner bio-one) at approximately 10,000 cells per well. The cells were left to grow for 48-72 h at 37 °C in a 5% CO2 incubator until they reached confluence. Plates were then aspirated and increasing concentrations of peptides diluted in culture media were added to the cells for 48 h at 37 °C in a 5% CO2 incubator. At the end of the incubation, wells were emptied and cell viability was evaluated using Resazurin based in vitro toxicity assay kit (from Sigma-Aldrich) following manufacturer's instructions. Briefly, Resazurin stock solution was diluted 1:10 in sterile PBS containing calcium and magnesium (PBS, pH 7.4) and empty wells were filled with 100 µL of the diluted solution. After 4 h incubation at 37 °C, fluorescence intensity was measured using microplate reader (Synergy Mx, Biotek) with an excitation wavelength of 530 nm and an emission wavelength of 590 nm. The fluorescence values were normalized by the controls (buffer treated cells) and expressed as percent viability. The IC50 values of peptides on cell viability (i.e. the concentration of derivative causing a reduction of 50% of cell viability) were determined using GraphPad® Prism 7 software. t-Test and two way ANOVA analyses were used to address the significant differences between mean values with significance set at p < 0.05.
# [5] = system: H. pylori
# [6] = system: V. alginolyticus
# [7] = system: M. smegmatis; settings: 72 h
# [8] = system: P. aeruginosa
# [9] = system: S. enterica
# [10] = system: C. rodentium
# [11] = system: A. gandavensis
# [12] = system: Pseudomonas aeruginosa; test: Stability of the peptides to proteases and human serum (MIC of digested peptides); assay type: in vitro ADME; settings: against Pseudomonas aeruginosa
# Procedure: In order to evaluate the stability of the peptides to condition they will face in vivo, their resistance to proteases and human serum was evaluated (Oyama et al., 2017 Biofilms Microbiomes, Dec 1;3:33). Briefly, one volume of peptides (at 1 mM) was diluted in one volume of proteases (Pepsin, Trypsin, Chymotrypsin, Papain all from Sigma Aldrich and diluted at 2 mg/ml in HCl 10 mM pH2 for Pepsin, PBS pH 7 for Trypsin and Chymotrysin and PBS pH 6 for Papain) or human serum (Sigma Aldrich H4522). Peptides incubated in the same conditions in PBS were used as controls. After 4 h (for proteases) and 4 or 24 h (for human serum) of incubation at 37°C, PMSF was added to the reaction mixture at a final concentration of 100 µM to stop the digestion. MIC of the digested peptides were then determined as explained above.
# [13] = system: MiaPaCa-2; test: Antitumor / antiproliferative activity (resazurin); assay type: cell-based, human; settings: pancreas cancer cells; 5,000 cells/well; 48 h; read-out: IC50 antiproliferative effect MiaPaCa-2
# Procedure: (§2) Human cancer cell lines (Mia PaCa-2 (CRL-1420), PC-3 (CRL-1435), MDA-MB-231 (HTB-26)) and normal lung fibrobasts (BEAS-2B (ATCC CRL-9609) and IMR-90 (ATCC CCL-186)) were obtained from American Type Culture Collection (ATCC). HUVEC cells were obtained from Sigma Aldrich and were grown in defined all-in-one ready to use endothelial cell growth medium (Sigma Aldrich). Other cells were cultured in Dulbecco's modified Eagle's medium (DMEM, Gibco Life Technologies) supplemented with 10% heat-inactivated fetal calf serum (FCS, Lonza) at 37 °C in an incubator containing 5% CO2. Cells were sub-cultured in new media every 3-4 days. Antiproliferative / antitumor effects of the peptides were measured as previously described (Borie et al., Eur J Med Chem. 2018;148:306-313). Briefly, cells were detached from growing flask using trypsin, cells were counted and seeded in 96 well-plates in the growth media at an initial cell density of 5000 cells/well. Cells were left for 4 h to attach to the wells. Cells were then treated with increasing concentrations of peptides diluted in culture media. After 48 h incubation at 37 °C in a 5% CO2 incubator, wells were emptied and cell number was evaluated using Resazurin based in vitro toxicity assay kit (from Sigma-Aldrich) following manufacturer's instructions. Briefly, Resazurin stock solution was diluted 1:10 in sterile PBS containing calcium and magnesium (PBS, pH 7.4) and empty wells were filled with 100 µL of the diluted solution. After 4 h incubation at 37 °C, fluorescence intensity was measured using microplate reader (Synergy Mx, Biotek) with an excitation wavelength of 530 nm and an emission wavelength of 590 nm. The fluorescence values were normalized by the controls (buffer treated cells) and expressed as per-cent viability. The IC50 values of peptides on cell division / proliferation (i.e. the concentration of derivative causing a reduction of 50% of cell division) were determined using GraphPad ® Prism 7 software. t-Test and two way ANOVA analyses were used to address the significant differences between mean values with significance set at p < 0.05.
# [14] = system: MDA-MB-231; test: Antitumor / antiproliferative activity (resazurin); assay type: cell-based, human; settings: breast cancer cells; 5,000 cells/well; 48 h; read-out: IC50 antiproliferative effect MDA-MB-231
# Procedure: as §2
# [15] = system: PC-3; test: Antitumor / antiproliferative activity (resazurin); assay type: cell-based, human; settings: prostate cancer cells; 5,000 cells/well; 48 h; read-out: IC50 antiproliferative effect PC-3
# Procedure: as §2
# [16] = system: S. flexneri
# [17] = system: L. lactis
# [18] = system: E. coli EHEC K88
# [19] = system: P. aeruginosa FQR
# [20] = system: P. aeruginosa 01
# [21] = system: B. subtilis (Nisin-resistant)
# [22] = system: C. farmeri
# [23] = system: A.baumani
# [24] = system: B. subtilis; test: Selection for resistant bacteria (serial passaging); assay type: cell-based; settings: daily exposure at sub-MIC levels, 30 days; antibiotic: after 10 days
# Procedure: (§3) To evaluate if populations of AMP-resistant bacteria could be selected, cultures were continuously exposed to LTX-gallicune-1 (I1N1) and LTX-gallicune-2(R1W8) peptides for a duration of 30 days, as previously described (Oyama et al., 2017 Biofilms Microbiomes, Dec 1;3:33). Briefly, broth microdilution susceptibility testing was performed using a standard doubling-dilution series of gallicune peptides concentrations on day 1. Following incubation of the cultures for 24 h, and determination of the MIC, the well that contained the highest concentration of AMPs permitting growth was diluted 1: 1000 in MH and used to provide the inoculum for the next MIC assay; this process was repeated daily for 30 days.
# [25] = system: P. aeruginosa; test: as above; assay type: cell-based; settings: daily exposure at sub-MIC levels, 30 days; antibiotics: after 10 days
# Procedure: as §3
# [26] = system: B. subtilis; test: Antimicrobial tests (MIC, two-fold serial dilution); assay type: cell-based, Bacillus subtilis (ATCC 6633); settings: Bacillus subtilis; Table 3; n=4
# [27] = system: S. aureus; test: as above; assay type: cell-based, Staphylococcus aureus (ATCC 6538P); settings: Staphylococcus aureus; Table 3; n=4
# [28] = system: P. aeruginosa; test: Antimicrobial tests (MIC/MBC, two-fold serial dilution); assay type: cell-based, Pseudomonas aeruginosa (ATCC 9037); settings: Table 3, n=4
# [29] = system: E. coli; test: Antimicrobial tests (MIC, two-fold serial dilution); assay type: cell-based, E. coli (ATCC 8739); settings: Escherichia coli; Table 3; n=4
molecule,measurement,setting,value
"COc1cccc2c1C(=O)c1c(O)c3c(c(O)c1C2=O)C[C@@](O)(C(=O)CO)C[C@@H]3O[C@H]1C[C@H](N)[C@H](O)[C@H](C)O1 [Doxo, Doxorubicine]",IC50,[1],0.19 µM
same,IC50,[2],0.0798 µM
same,IC50,[3],0.315 µM
CC[C@@H](C)[C@@H](N)C(=O)N[C@@H](CC(C)C)C(=O)N[C@@H](CCCCN)C(=O)N[C@@H](C)C(=O)N[C@H](C(=O)N[C@@H](CCCCN)C(=O)N[C@@H](CCCCN)C(=O)N[C@@H](CC(C)C)C(=O)N[C@@H](CC(C)C)C(=O)N[C@@H](CCCCN)C(=O)N[C@H](CC(N)=O)C(N)=O)[C@@H](C)CC [LTX-gallicune-1(i1D-n11D)] (H-[dI]LKAIKKLLK[dN]-NH2),CC50 at 48 h,"[4]; BEAS-2B normal lung epithelial cells, normal lung epithelium, read-out: Cytotoxicity IC50 (µM) BEAS",391 µM
same,CC50 at 48 h,"[4]; HUVEC (human umbilical vein endothelial cells), normal endothelium, read-out: Cytotoxicity IC50 (µM) HUVEC",436 µM
same,CC50 at 48 h,"[4]; IMR-90 normal lung fibroblast cells, read-out: Cytotoxicity IC50 (µM) IMR90",362 µM
same,MBC (µM) H. pylori,[5],25 µM
same,MIC (µM) H. pylori,[5],25 µM
same,MBC (µM) V. alginolyticus,[6],0.78 µM
same,MIC (µM) V. alginolyticus,[6],0.78 µM
same,MIC (µM) M. smegmatis,[7],25 µM
same,MBC (µM) P. aeruginosa,[8],1.5 µM
same,MIC (µM) P. aeruginosa,[8],1.5 µM
same,MIC PA,[8],1.5 µM
same,MBC (µM) S. enterica,[9],25 µM
same,MIC (µM) S. enterica,[9],25 µM
same,MBC (µM) C. rodentium,[10],25 µM
same,MIC (µM) C. rodentium,[10],25 µM
same,MBC (µM) A. gandavensis,[11],1.5 µM
same,MIC (µM) A. gandavensis,[11],1.5 µM
same,MIC (µM) Serum4h,[12]; after 4 h at 37°C in human serum,>50 µM
same,MIC (µM) Chymotrypsin,"[12]; after 4 h at 37°C with chymotrypsin, pH 7",>50 µM
same,MIC (µM) Pepsin,"[12]; after 4 h at 37°C with pepsin, pH2",>50 µM
same,MIC (µM) Trypsin,"[12]; after 4 h at 37°C with trypsin, pH 7",>50 µM
same,MIC (µM) Serum24h,[12]; after 24 h at 37°C in human serum,25 µM
same,MIC (µM) Control,"[12]; peptide incubated in PBS, not treated with proteases",3.125 µM
same,IC50,[13],4.61 µM
same,IC50,[14],75.6 µM
same,IC50,[15],32.3 µM
same,MBC (µM) S. flexneri,[16],12.5 µM
same,MIC (µM) S. flexneri,[16],12.5 µM
same,MBC (µM) L. lactis,[17],0.78 µM
same,MIC (µM) L. lactis,[17],1.5 µM
same,MBC (µM) E. coli EHEC K88,[18],50 µM
same,MIC (µM) E. coli EHEC K88,[18],25 µM
same,MBC (µM) P. aeruginosa FQR,[19],25 µM
same,MIC (µM) P. aeruginosa FQR,[19],6.25 to 12.5 µM
same,MBC (µM) P. aeruginosa 01,[20],12.5 µM
same,MIC (µM) P. aeruginosa 01,[20],6.25 µM
same,MBC (µM) B. subtilis (Nisin-resistant),[21],6.25 µM
same,MIC (µM) B. subtilis (Nisin-resistant),[21],6.25 µM
same,MBC (µM) C. farmeri,[22],12.5 µM
same,MIC (µM) C. farmeri,[22],6.25 µM
same,MIC (µM) A.baumani,[23],12.5 µM
C/C(=C\C(=O)OCCCCCCCCC(=O)O)C[C@@H]1OC[C@H](C[C@@H]2O[C@H]2[C@@H](C)[C@H](C)O)[C@@H](O)[C@H]1O [Mupirocin],change of MIC against B. subtilis on serial passaging (resistance acquisition),[24],increasing
CO/N=C1\CN(c2nc3c(cc2F)c(=O)c(C(=O)O)cn3C2CC2)CC1CN (stereo not drawn) [Gemifloxacin],change of MIC against P. aeruginosa on serial passaging (resistance acquisition),[25],increasing
CC1(C)S[C@@H]2[C@H](NC(=O)[C@H](N)c3ccc(O)cc3)C(=O)N2[C@H]1C(=O)O [Amoxicilline],MIC,[26],0.45 to 0.9 µM
same,MIC,[27],0.9 µM
same,MIC,[28]; Pseudomonas aeruginosa,> 100 µM
same,MIC,[29],9 µM
Gentamycine,MIC,[28],0.3 µM
